From ChEMBL document CHEMBL3091433, “Structure-based design of substituted hexafluoroisopropanol-arylsulfonamides as modulators of RORc” (Bioorg Med Chem Lett, 2013)

Key:
[1] = target: T1, Oxysterols receptor LXR-beta (Homo sapiens, UniProt P55055)
T1 sequence (P55055 whole entry): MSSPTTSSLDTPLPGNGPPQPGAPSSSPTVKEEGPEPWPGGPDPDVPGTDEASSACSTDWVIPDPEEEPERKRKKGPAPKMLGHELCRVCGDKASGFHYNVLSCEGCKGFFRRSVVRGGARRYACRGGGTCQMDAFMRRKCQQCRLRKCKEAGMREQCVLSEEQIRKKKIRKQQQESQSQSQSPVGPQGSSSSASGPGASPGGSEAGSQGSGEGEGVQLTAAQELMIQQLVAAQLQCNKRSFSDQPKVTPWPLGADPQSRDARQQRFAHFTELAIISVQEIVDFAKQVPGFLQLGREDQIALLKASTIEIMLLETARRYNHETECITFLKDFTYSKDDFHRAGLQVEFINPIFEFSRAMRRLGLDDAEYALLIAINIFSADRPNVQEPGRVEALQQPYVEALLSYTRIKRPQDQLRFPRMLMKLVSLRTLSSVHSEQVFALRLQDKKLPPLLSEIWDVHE
Description: Agonist activity at GAL4-fused human LXRbeta expressed in HEK293T cells assessed as activation of basal transcriptional activity after 20 hrs by dual-glo luciferase reporter gene assay

[2] = target: T2, Nuclear receptor ROR-gamma (Homo sapiens, UniProt P51449)
T2 sequence (P51449 whole entry): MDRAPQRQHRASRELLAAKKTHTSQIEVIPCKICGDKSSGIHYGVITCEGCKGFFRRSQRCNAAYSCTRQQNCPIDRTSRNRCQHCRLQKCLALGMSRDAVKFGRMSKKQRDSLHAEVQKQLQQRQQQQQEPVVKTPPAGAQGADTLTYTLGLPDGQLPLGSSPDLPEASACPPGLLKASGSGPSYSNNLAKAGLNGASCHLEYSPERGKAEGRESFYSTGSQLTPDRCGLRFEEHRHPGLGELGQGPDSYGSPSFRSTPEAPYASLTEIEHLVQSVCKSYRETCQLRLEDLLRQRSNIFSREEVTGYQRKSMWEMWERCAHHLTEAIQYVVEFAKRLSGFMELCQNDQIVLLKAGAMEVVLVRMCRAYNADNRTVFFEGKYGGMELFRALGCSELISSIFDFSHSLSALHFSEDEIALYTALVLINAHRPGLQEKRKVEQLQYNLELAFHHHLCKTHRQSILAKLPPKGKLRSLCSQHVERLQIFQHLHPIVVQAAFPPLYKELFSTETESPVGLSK
Description: Inverse agonist activity at GAL4-fused human RORc expressed in HEK293T cells assessed as suppression of basal transcriptional activity after 20 hrs by dual-glo luciferase reporter gene assay

[3] = target: T2, Nuclear receptor ROR-gamma; remark: listed apart in the source
Description: Inverse agonist activity at N-terminal 6xHis-tagged human RORc ligand binding domain (241 to 486) expressed in bacterial expression system assessed as inhibition of SRC1 co-activator peptide recruitment after 3 hrs by TR-FRET analysis

[4] = target: T2, Nuclear receptor ROR-gamma; remark: listed apart in the source
Description: Displacement of [3H2]-25-hydroxycholesterol from N-terminal 6xHis-tagged human RORc ligand binding domain (241 to 486) expressed in bacterial expression system after 3 hrs by scintillation counting analysis

PXR (NR1I2) = target: T3, PXR (NR1I2) (Homo sapiens, UniProt O75469); assay: in vitro; details: HEK293T cells expressing GAL4-fused human PXR
T3 sequence (O75469 whole entry): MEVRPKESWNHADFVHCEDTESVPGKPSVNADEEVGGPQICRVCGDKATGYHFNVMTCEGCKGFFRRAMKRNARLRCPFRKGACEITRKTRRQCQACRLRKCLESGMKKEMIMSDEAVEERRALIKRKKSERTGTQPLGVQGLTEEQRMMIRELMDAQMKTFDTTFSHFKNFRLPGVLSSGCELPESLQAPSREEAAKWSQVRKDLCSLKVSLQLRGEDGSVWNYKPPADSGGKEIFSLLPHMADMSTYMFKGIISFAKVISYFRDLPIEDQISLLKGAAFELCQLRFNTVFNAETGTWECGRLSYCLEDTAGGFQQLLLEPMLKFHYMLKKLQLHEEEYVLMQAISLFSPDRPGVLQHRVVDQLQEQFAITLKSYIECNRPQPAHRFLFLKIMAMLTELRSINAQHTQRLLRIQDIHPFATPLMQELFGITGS
Description: Agonist activity at GAL4-fused human PXR expressed in HEK293T cells assessed as activation of basal transcriptional activity after 20 hrs by dual-glo luciferase reporter gene assay relative to apo-receptor

PBMC [5] = assay: Cytotoxicity against human PBMC assessed as effect on cell physiology after 48 hrs by CellTiter-Glo assay
PBMC [6] = assay: Inhibition of IFNgamma production in human PBMC after 48 hrs by Sandwich ELISA
PBMC [7] = assay: Antiinflammatory activity in human PBMC assessed as inhibition of IL-17 production after 48 hrs by Sandwich ELISA relative to control; type: functional
PBMC [8] = assay: cells; details: Homo sapiens, 48 h

Structure (SMILES): CCN(c1ccc(C(O)(C(F)(F)F)C(F)(F)F)cc1)S(=O)(=O)c1ccccc1
- EC50 [1]: 246 nM
- EC50 [2]: 593 nM
- EC50 [3]: 190 nM
- IC50 [4]: 245 nM
- fold induction at 20 h (PXR (NR1I2)): 24

Structure (SMILES): N#Cc1ccc(S(=O)(=O)N(CC(F)(F)F)c2ccc(C(O)(C(F)(F)F)C(F)(F)F)cc2)cc1
- EC50 (PBMC [5]): > 20000 nM
- EC50 (PBMC [6]): > 20000 nM
- Imax (PBMC [7]): 74%
- EC50 [1]: 902 nM
- EC50 [2]: 192 nM
- EC50 [3]: 61 nM
- IC50 [4]: 50 nM
- EC50 (PBMC [8]): 1000 nM
- fold induction at 20 h (PXR (NR1I2)): 27

Structure (SMILES): O=S(=O)(c1ccc(F)cc1)N(CC(F)(F)F)c1ccc(C(O)(C(F)(F)F)C(F)(F)F)cc1
- EC50 (PBMC [5]): > 20000 nM
- EC50 (PBMC [6]): > 20000 nM
- Imax (PBMC [7]): 83%
- EC50 [1]: 385 nM
- EC50 [2]: 89 nM
- EC50 [3]: 19 nM
- IC50 [4]: 34 nM
- EC50 (PBMC [8]): 132 nM
- fold induction at 20 h (PXR (NR1I2)): 30
